Data taken from publication PMC11790914, “Chemogenomics for steroid hormone receptors (NR3)” (Communications Chemistry, 2025).
Values joined by “and” are separate entries in the source; they are usually repeats but may differ in a detail not shown here. Equal entries are not always repeated. Where two headings read alike, the source gives them in different places.

Assays:
BRD4 = molecular target: T1, BRD4 (Homo sapiens, UniProt O60885); experiment: Liability panel screening by DSF: BRD4; format: binding; conditions: read-out: Mean ΔTM BRD4
T1 construct: This panel comprised ten highly ligandable kinases and bromodomains; made in house
Experimental: (§1) Reference ligands are listed in the methods section.
(§2) In-house produced recombinantly expressed proteins[62] of the liability panel targets were diluted in a buffer containing 10 mM HEPES (pH 7.5) and 500 mM NaCl to a concentration of 2 µM. SYPRO Orange (Invitrogen, Carlsbad, California, USA; #S6650) as a fluorescence probe was added at a 1:1000 dilution to the proteins. […] Temperature-dependent unfolding profiles were measured on a QuantStudio™ 5 real-time PCR machine (Thermo Fisher Scientific, Waltham, Massachusetts, USA; #A28140). […] The temperature was increased 3 °C per minute to a maximum temperature of 85 °C. Experiments were run as technical duplicates. […] Data were analyzed with the internal Thermal Shift Software (version 1.4, Thermo Fisher Scientific) using the Boltzmann equitation to determine the inflection point of the transition curve. Differences in melting temperature are given as ∆Tm in K. […]
(§3) scanning fluorimetry (DSF).
(§4) a concentration of 20 µM.

CSNK1D = molecular target: T2, CSNK1D (Homo sapiens, UniProt P48730); experiment: Liability panel screening by DSF: CSNK1D; format: binding; conditions: read-out: Mean ΔTM CSNK1D
T2 construct: made in house
Experimental: as §1, §2, §3, §4

BRPF1 = molecular target: T3, BRPF1 (Homo sapiens, UniProt P55201); experiment: Liability panel screening by DSF: BRPF1; format: binding; conditions: read-out: Mean ΔTM BRPF1
T3 construct: This panel comprised ten highly ligandable kinases and bromodomains; made in house
T3 sequence (P55201 628-732 limits assumed): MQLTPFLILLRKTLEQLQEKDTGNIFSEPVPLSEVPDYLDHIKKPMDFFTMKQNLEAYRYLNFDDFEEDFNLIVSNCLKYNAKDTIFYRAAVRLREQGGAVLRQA
Experimental: as §1, §2, §3, §4

GSK3B = molecular target: T4, GSK3B (Homo sapiens, UniProt P49841); experiment: Liability panel screening by DSF: GSK3B; format: binding; conditions: read-out: Mean ΔTM GSK3B
T4 construct: made in house

FGFR3 = molecular target: T5, FGFR3 (Homo sapiens, UniProt P22607); experiment: Liability panel screening by DSF: FGFR3; format: binding; conditions: read-out: Mean ΔTM FGFR3
T5 construct: made in house
Experimental: as §1, §2, §3, §4

TRIM24 = molecular target: T6, TRIM24 (Homo sapiens, UniProt O15164); experiment: Liability panel screening by DSF: TRIM24; format: binding; conditions: read-out: Mean ΔTM TRIM24
T6 construct: This panel comprised ten highly ligandable kinases and bromodomains; made in house
T6 sequence (O15164 899-1004 limits assumed): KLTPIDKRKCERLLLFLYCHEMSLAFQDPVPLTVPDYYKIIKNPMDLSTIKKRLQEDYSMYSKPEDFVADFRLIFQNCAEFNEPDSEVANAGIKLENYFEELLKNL
Experimental: as §1, §2, §3, §4

HEK293T cells [1] = experiment: Cytotoxicity: necrosis induction (red fluorescent dye for permeable plasma membranes); format: cell-based; conditions: 1 µM, 24 h, necrotic cell count normalized to 0.1% DMSO, single replicates;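 further: compounds applied in DMEM high glucose with 0.1% FCS and 0.1% DMSO, necrotic HEK293T cells counted by red staining of cells whose plasma membranes had become permeable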
Experimental: Cells were incubated with the test compounds at the indicated concentrations solubilized with 0.1% DMSO for 24 h. […] Necrotic cells were detected with a red fluorescent dye that labels cells with permeable plasma membranes after 24 h treatment and the necrotic cell count was normalized to 0.1% DMSO treated cells (n = 4). e NR family selectivity profiling of NR3 CG compound candidates in uniform Gal4-hybrid reporter gene assays for selected NR representing the NR1, NR2, NR4 and NR5 families.
HEK293T cells (German Collection of Microorganisms and Cell Culture GmbH, DSMZ; #ACC305) were cultured in DMEM high glucose, supplemented with 10% fetal calf serum (FCS), sodium pyruvate (1 mM), penicillin (100 µ/mL) and streptomycin (100 µg/mL) at 37 °C and 5% (v/v) CO2, and seeded in pre-coated (10 µg/mL collagen G solution (Merck KgaA; #L7213) for 30 min at 37 °C) 96-well plates (2 × 10^5 cells per well). After 24 h, the cells were treated with the respective NR3 CG compound candidate at the recommended concentration, bexarotene (100 µM) or doxorubicin (30 µM) as positive controls in DMEM high glucose supplemented with 0.1% FCS, penicillin (100 µ/mL), streptomycin (100 µg/mL) and 0.1% DMSO, or 0.1% DMSO alone as an untreated control. Each sample was prepared in at least four biologically independent replicates. […] Before drug administration, after the first medium exchange, 24 h after drug administration, and after fluorescence imaging cell confluence was assessed using the Tecan Spark Cyto, to account for changes in cell confluence due to drug administration and cell handling. Compound effects on cell confluence, apoptosis, metabolic activity and necrosis were normalized to the vehicle control of each biological replicate individually.

[2] = tested on: NF-κB activity in HEK293 NF-κB reporter cells; experiment: NF-kB activity assay (GFP reporter, ionomycin/PMA); format: cell-based; conditions: for Mean NFκB response: n=3
Experimental: Fig. 6 Application of the NR3 CG set.
After 24 h, cells were incubated with the test compounds solubilized with 0.1% DMSO in the same medium without puromycin. After 4 h incubation, ionomycin (100 ng/mL) and phorbol-12-myristat-13-acetate (PMA, 10 ng/mL) was added, and the cells were imaged for confluence and GFP expression every 90 min. over 24 h using a Tecan SPARK Cyto (Tecan). The number of GFP expressing cells was normalized to confluence in each sample. Each sample was repeated in three biologically independent experiments.

CDK2 = molecular target: T7, CDK2 (Homo sapiens, UniProt P24941); experiment: Liability panel screening by DSF: CDK2; format: binding; conditions: read-out: Mean ΔTM CDK2
T7 construct: made in house
Experimental: as §1, §2, §3, §4

ABL1 = molecular target: T8, ABL1 (Homo sapiens, UniProt P00519); experiment: Liability panel screening by DSF: ABL1; format: binding; conditions: read-out: Mean ΔTM ABL1
T8 construct: made in house
Experimental: as §1, §2, §3, §4

MAPK1 = molecular target: T9, MAPK1 (Homo sapiens, UniProt P28482); experiment: Liability panel screening by DSF: MAPK1; format: binding; conditions: read-out: Mean ΔTM MAPK1
T9 construct: made in house
Experimental: as §1, §2, §3, §4

AURKA = molecular target: T10, AURKA (Homo sapiens, UniProt O14965); experiment: Liability panel screening by DSF: AURKA; format: binding; conditions: read-out: Mean ΔTM AURKA
T10 construct: made in house
T10 sequence (O14965 1-403): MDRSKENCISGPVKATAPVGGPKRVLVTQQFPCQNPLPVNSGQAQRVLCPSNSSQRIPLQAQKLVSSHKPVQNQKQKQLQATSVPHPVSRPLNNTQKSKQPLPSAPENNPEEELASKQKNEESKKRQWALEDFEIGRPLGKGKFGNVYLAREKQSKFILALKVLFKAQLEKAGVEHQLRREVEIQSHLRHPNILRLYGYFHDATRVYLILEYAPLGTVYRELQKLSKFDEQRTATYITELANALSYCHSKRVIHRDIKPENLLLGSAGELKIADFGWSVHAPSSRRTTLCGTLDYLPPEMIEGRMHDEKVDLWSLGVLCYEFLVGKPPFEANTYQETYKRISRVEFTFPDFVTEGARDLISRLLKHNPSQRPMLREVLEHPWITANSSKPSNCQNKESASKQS
Experimental: as §1, §2, §3, §4

HEK293T cells [3] = experiment: Cytotoxicity: metabolic activity (WST-8 / CCK-8 assay); conditions: 1 µM; HEK293T, 24 h; WST-8; normalized to 0.1% DMSO; single replicates
HEK293T cells [4] = experiment: Cytotoxicity: growth-rate (change in confluence over 24 h); conditions: 1 µM, normalized to 0.1% DMSO control, single replicates (n=1...)
[5] = tested on: ATF6 activity in Hela ATF6 reporter cells; experiment: Endoplasmic reticulum stress assay (ATF6 Renilla luciferase reporter, tunicamycin); format: cell-based; conditions: for activity at 1 µM: Homo sapiens, HeLa, single replicates n=1 to n=5, read-out: ER stress [rel. ATF6 activity]
Experimental: After 24 h, cells were incubated with the test compounds solubilized with 0.1% DMSO in the same medium without puromycin. After 4 h incubation, tunicamycin (100 ng/mL) was added. After another 18 h incubation, cells were assayed for renilla luminescence using DualGlo reagent (Promega) on a Tecan SPARK Cyto (Tecan). Test samples were normalized to the 0.1% DMSO control. Each sample was repeated in five biologically independent experiments.

HEK293T cells [6] = experiment: Cytotoxicity: apoptosis induction (caspase-3/7 DEVD fluorogenic DNA dye); conditions: 1 µM; HEK293T, 24 h; apoptotic cell count normalized to 0.1% DMSO; single replicates

T4 sequence (P49841 whole entry, species assumed): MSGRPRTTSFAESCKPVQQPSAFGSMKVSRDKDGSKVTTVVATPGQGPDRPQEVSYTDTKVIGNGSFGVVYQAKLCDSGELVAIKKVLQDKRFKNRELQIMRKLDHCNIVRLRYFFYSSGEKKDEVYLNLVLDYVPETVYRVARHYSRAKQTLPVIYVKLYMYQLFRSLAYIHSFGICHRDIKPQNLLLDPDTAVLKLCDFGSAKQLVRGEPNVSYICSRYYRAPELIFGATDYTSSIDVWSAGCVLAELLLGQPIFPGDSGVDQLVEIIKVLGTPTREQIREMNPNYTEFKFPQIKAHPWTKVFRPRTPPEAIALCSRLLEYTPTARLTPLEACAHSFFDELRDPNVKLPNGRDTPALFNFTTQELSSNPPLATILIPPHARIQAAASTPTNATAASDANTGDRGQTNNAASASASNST
T2 sequence (P48730 whole entry, species assumed): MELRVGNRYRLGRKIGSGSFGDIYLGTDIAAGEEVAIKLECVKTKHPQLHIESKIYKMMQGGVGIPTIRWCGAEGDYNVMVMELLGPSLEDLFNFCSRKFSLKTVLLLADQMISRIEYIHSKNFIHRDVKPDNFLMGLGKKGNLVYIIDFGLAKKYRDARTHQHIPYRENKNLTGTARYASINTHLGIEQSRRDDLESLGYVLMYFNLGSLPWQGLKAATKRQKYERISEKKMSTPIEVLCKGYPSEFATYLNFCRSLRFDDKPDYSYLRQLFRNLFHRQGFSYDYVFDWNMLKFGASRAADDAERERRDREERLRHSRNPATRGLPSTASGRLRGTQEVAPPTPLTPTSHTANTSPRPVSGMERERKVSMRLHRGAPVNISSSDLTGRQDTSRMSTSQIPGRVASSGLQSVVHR
T5 sequence (P22607 23-806, species assumed): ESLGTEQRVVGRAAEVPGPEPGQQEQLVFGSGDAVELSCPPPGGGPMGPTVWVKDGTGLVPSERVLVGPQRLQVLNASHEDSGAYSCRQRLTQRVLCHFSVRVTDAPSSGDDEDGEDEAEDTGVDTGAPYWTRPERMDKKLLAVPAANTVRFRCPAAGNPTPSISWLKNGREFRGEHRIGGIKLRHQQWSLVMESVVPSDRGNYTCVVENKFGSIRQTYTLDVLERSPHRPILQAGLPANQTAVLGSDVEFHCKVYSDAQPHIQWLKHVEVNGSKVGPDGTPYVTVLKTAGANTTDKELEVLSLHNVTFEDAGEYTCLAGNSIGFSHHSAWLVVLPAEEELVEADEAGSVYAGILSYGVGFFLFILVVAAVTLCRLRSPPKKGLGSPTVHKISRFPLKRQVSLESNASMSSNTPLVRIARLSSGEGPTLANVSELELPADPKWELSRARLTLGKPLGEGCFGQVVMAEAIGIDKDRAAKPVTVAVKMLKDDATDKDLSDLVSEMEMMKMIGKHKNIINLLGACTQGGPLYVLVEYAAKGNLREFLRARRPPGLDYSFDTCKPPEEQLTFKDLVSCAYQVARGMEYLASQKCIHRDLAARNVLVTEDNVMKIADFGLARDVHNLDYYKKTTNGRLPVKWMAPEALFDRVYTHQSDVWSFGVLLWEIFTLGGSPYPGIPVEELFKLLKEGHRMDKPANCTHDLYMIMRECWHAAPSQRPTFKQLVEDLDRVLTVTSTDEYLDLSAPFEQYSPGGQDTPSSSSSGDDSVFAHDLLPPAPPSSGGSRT
T9 sequence (P28482 whole entry, species assumed): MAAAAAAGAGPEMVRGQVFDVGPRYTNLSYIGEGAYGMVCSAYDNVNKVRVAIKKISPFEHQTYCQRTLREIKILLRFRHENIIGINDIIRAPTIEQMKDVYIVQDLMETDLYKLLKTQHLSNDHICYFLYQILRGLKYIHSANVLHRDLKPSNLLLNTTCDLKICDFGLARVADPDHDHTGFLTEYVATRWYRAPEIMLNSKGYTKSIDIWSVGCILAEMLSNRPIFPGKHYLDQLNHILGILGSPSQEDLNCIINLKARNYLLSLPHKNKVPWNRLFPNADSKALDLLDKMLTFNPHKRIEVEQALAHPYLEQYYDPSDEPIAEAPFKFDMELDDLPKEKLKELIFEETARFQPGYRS
T8 sequence (P00519 whole entry, species assumed): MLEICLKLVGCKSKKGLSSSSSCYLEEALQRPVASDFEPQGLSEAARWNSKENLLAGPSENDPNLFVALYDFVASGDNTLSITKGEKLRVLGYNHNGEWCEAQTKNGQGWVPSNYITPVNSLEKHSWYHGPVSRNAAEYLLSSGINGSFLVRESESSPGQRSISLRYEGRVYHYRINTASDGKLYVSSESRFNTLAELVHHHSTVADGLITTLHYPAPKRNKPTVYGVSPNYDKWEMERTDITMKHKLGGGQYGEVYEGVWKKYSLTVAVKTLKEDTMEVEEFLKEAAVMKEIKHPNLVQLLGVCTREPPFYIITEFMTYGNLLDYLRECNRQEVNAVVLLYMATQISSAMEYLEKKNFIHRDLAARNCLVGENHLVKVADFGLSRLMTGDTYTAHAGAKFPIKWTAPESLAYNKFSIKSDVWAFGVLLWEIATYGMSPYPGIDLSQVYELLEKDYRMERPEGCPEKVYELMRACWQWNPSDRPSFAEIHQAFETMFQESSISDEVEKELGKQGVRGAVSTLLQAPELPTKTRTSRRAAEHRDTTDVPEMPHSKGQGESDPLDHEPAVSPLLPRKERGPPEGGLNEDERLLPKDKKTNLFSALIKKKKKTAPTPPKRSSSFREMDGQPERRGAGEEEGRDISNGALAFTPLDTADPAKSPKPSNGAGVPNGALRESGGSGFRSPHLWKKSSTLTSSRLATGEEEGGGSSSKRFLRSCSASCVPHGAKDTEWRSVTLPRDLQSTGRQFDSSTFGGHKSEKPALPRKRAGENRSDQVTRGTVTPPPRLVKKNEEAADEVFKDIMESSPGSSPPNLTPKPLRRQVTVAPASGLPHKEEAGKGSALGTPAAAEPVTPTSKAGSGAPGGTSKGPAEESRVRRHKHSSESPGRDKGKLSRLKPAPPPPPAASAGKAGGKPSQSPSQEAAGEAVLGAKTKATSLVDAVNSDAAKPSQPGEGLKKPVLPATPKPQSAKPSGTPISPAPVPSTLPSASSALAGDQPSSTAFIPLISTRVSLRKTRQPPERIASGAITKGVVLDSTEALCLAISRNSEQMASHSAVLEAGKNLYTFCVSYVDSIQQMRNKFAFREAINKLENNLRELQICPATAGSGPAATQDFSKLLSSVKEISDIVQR

Row | Structure (SMILES) | Necrosis induction [NI] (HEK293T cells [1]) | Mean NFκB response ([2]; 1 µM, 1,5 h) | Mean NFκB response ([2]; 1 µM, 4,5 h) | Mean NFκB response ([2]; 1 µM, 7,5 h) | Mean NFκB response ([2]; 1 µM, 10,5 h) | Mean NFκB response ([2]; 1 µM, 13,5 h) | Mean NFκB response ([2]; 1 µM, 16,6 h) | Mean NFκB response ([2]; 1 µM, 19,5 h) | Mean NFκB response ([2]; 1 µM, 22,5 h) | Mean NFκB response ([2]; 1 µM, 3 h) | Mean NFκB response ([2]; 1 µM, 6 h) | Mean NFκB response ([2]; 1 µM, 9 h) | Mean NFκB response ([2]; 1 µM, 12 h) | Mean NFκB response ([2]; 1 µM, 15 h) | Mean NFκB response ([2]; 1 µM, 18 h) | Mean NFκB response ([2]; 1 µM, 21 h) | Mean NFκB response ([2]; 1 µM, 24 h) | Metabolic activity [MA] (HEK293T cells [3]) | Growth rate [GR] (HEK293T cells [4]) | activity at 1 µM [5] | further results
1 | O=S(=O)(Cc1ccccc1)Nc1ccc(-c2ccc3c(cnn3-c3ccc(F)cc3)c2)c(C(F)(F)F)c1 [GSK9027] | 0.93 and 0.78 and 0.76 and 1.05 | 2917.80 GFP+-cells/confluence ∙ 1000 | 3437.70 GFP+-cells/confluence ∙ 1000 | 4957.90 GFP+-cells/confluence ∙ 1000 | 8098.89 GFP+-cells/confluence ∙ 1000 | 11113.03 GFP+-cells/confluence ∙ 1000 | 13521.21 GFP+-cells/confluence ∙ 1000 | 14898.72 GFP+-cells/confluence ∙ 1000 | 15985.14 GFP+-cells/confluence ∙ 1000 | 2869.62 GFP+-cells/confluence ∙ 1000 | 4105.89 GFP+-cells/confluence ∙ 1000 | 6294.49 GFP+-cells/confluence ∙ 1000 | 9593.56 GFP+-cells/confluence ∙ 1000 | 12593.25 GFP+-cells/confluence ∙ 1000 | 14186.97 GFP+-cells/confluence ∙ 1000 | 15313.70 GFP+-cells/confluence ∙ 1000 | 16630.14 GFP+-cells/confluence ∙ 1000 | 1.03 and 1.01 (3×) and 0.96 and 1.00 and 1.18 and 1.15 | 0.54 and 0.80 and 0.72 and 0.98 and 0.70 and 0.66 and 0.84 and 1.89 and 2.05 and 4.10 | 76% | ΔTm at 20 µM (BRD4): 1.58 °C; ΔTm at 20 µM (CSNK1D): -1.92 °C; ΔTm at 20 µM (BRPF1): 1.21 °C; ΔTm at 20 µM (GSK3B): 1.24 °C; ΔTm at 20 µM (FGFR3): -0.29 °C; ΔTm at 20 µM (TRIM24): 1.36 °C; NF-κB activity (inflammatory response to ionomycin/PMA) ([2]; HEK293 NF-κB reporter cells, compounds at recommended concentrations, imaged over 24 h, n = 3): consistently delayed and strongly diminished NF-κB activity; ΔTm at 20 µM (CDK2): 0.1 °C; ΔTm at 20 µM (ABL1): 1.8 °C; ΔTm at 20 µM (MAPK1): -2.07 °C; ΔTm at 20 µM (AURKA): 1.2 °C; ATF6 activity (tunicamycin-induced endoplasmic reticulum stress) ([5]; Hela ATF6 reporter cells, tunicamycin 100 ng/mL, 18 h, compounds at recommended concentrations, n = 5): Consistently weaker ATF6 activity; Apoptosis induction [AI] (HEK293T cells [6]): 0.65 and 1.04 and 0.83 and 0.94 and 0.36 and 0.86
2 | O=C(/C=C/c1ccc(O)cc1)c1ccc(O)cc1O [Isoliquiritigenin] | 0.85 and 0.80 and 0.45 and 1.05 | 3578.42 GFP+-cells/confluence ∙ 1000 | 4286.96 GFP+-cells/confluence ∙ 1000 | 9277.37 GFP+-cells/confluence ∙ 1000 | 19586.05 GFP+-cells/confluence ∙ 1000 | 28313.33 GFP+-cells/confluence ∙ 1000 | 34970.00 GFP+-cells/confluence ∙ 1000 | 39776.67 GFP+-cells/confluence ∙ 1000 | 43150.00 GFP+-cells/confluence ∙ 1000 | 3834.99 GFP+-cells/confluence ∙ 1000 | 5800.94 GFP+-cells/confluence ∙ 1000 | 14742.34 GFP+-cells/confluence ∙ 1000 | 24113.33 GFP+-cells/confluence ∙ 1000 | 32050.00 GFP+-cells/confluence ∙ 1000 | 37423.33 GFP+-cells/confluence ∙ 1000 | 41230.00 GFP+-cells/confluence ∙ 1000 | 44476.67 GFP+-cells/confluence ∙ 1000 | 1.06 and 1.13 and 1.02 (2×) and 1.07 and 1.01 and 1.10 and 1.11 | 0.68 and 1.38 and 0.82 and 1.00 and 0.76 and 0.96 and 1.05 and 0.37 and 0.91 and 1.86 | 96% | ΔTm at 20 µM (BRD4; DSF, 20 µM, n=2): 1.51 °C; ΔTm at 20 µM (CSNK1D; DSF, 20 µM, n=2): 1.31 °C; ΔTm at 20 µM (BRPF1; DSF, 20 µM, n=2): 0.82 °C; ΔTm at 20 µM (GSK3B; DSF, 20 µM, n=2): 2.87 °C; ΔTm at 20 µM (FGFR3; DSF, 20 µM, n=2): 1.26 °C; ΔTm at 20 µM (TRIM24; DSF, 20 µM, n=2): -0.0317 °C; ΔTm at 20 µM (CDK2; DSF, 20 µM, n=2): 1.64 °C; ΔTm at 20 µM (ABL1; DSF, 20 µM, n=2): 6.6 °C; ΔTm at 20 µM (MAPK1; DSF, 20 µM, n=2): 1.33 °C; ΔTm at 20 µM (AURKA; DSF, 20 µM, n=2): 1.81 °C; Apoptosis induction [AI] (HEK293T cells [6]): 0.29 and 1.26 and 0.88 and 1.02 and 0.64 and 1.54
